Assay results as given in patent US11590139B2, “Substituted aminopurine compounds, compositions thereof, and methods of treatment therewith” (Signal Pharmaceuticals, LLC, priority 2014, dated 2023).

System: Lox-IMVI melanoma cell line
Assay: Lox-IMVI anti-proliferative assay (growth inhibition, Cell Titer-Glo)
Type: cell-based, human
Details: Homo sapiens; IC50 activity level in the cell-based Lox-IMVI anti-proliferative assay; read-out: Activity
Summary of the method: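 Luminescence from cellular ATP measured viability at compound addition and again after 72 h of exposure (37 °C, 5% CO2, RPMI + 10% FBS). Doses spanned 0.5 nM to 10 μM in ten 3-fold steps with 0.2% DMSO. Values were fitted as % of DMSO-treated cells by sigmoidal dose-response.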

IC50 | SMILES
> 1000 nM | CC[C@@H](CO)Nc1ncc2nc(Nc3cccc(Cl)c3F)n([C@H]3CC[C@@H](C(N)=O)CC3)c2n1 [Example 150, (1R,4s)-4-(8-(3-chloro-2-fluorophenylamino)-2-((S)-1_ hydroxybutan-2-ylamino)-9H-purin-9-yl)cyclohexanecarboxamide]
> 1000 nM | CC[C@@H](CO)Nc1ncc2nc(Nc3ccc(F)c(F)c3F)n([C@H]3CC[C@@H](C(N)=O)CC3)c2n1 [Example 151, (1R,4s)-4-(2-((S)-1-hydroxybutan-2-ylamino)-8-(2,3,4-trifluorophenylamino)-9H-purin-9-yl)cyclohexanecarboxamide]
> 1000 nM | C[C@@H](O)CNc1ncc2nc(Nc3c(Cl)cc(Cl)cc3Cl)n([C@H]3CC[C@@H](C(N)=O)CC3)c2n1 [Example 152, (1S,4s)-4-(2-((R)-2-hydroxypropylamino)-8-(2,4,6-trichlorophenylamino)-9H-purin-9-yl)cyclohexanecarboxamide]
> 1000 nM | CC[C@@H](CO)Nc1ncc2nc(Nc3c(Cl)cccc3Cl)n([C@H]3CC[C@@H](C(N)=O)CC3)c2n1 [Example 153, (1R,4s)-4-(8-(2,6-dichlorophenylamino)-2-((S)-1-hydroxybutan-2-ylamino)-9H-purin-9-yl)cyclohexanecarboxamide]
> 1000 nM | CC[C@@H](CO)Nc1ncc2nc(Nc3c(Cl)cc(Cl)cc3Cl)n([C@H]3CC[C@@H](C(N)=O)CC3)c2n1 [Example 154, (1R,4s)-4-(2-((S)-1-hydroxybutan-2-ylamino)-8-(2,4,6-trichlorophenylamino)-9H-purin-9-yl)cyclohexanecarboxamide]
> 1000 nM | CC(C)(C)OC(=O)N1CC[C@H](Nc2ncc3nc(Nc4c(F)cc(Cl)cc4F)n([C@H]4CC[C@@H](C(N)=O)CC4)c3n2)[C@H](F)C1 [Example 155, (3R,4S)-tert-butyl 4-(9-((1s,4R)-4-carbamoylcyclohexyl)-8-(4-chloro-2,6-difluorophenylamino)-9H-purin-2-ylamino)-3-fluoropiperidine-1-carboxylate]
> 1000 nM | NC(=O)[C@H]1CC[C@@H](n2c(Nc3c(F)cc(Cl)cc3F)nc3cnc(NC4CCS(=O)(=O)CC4)nc32)CC1 [Example 156, (1s,4s)-4-(8-((4-chloro-2,6-difluorophenyl)amino)-2-((1,1-dioxidotetrahydro-2H-thiopyran-4-yl)amino)-9H-purin-9-yl)cyclohexane-1-carboxamide]
> 1000 nM | NC(=O)[C@H]1CC[C@@H](n2c(Nc3c(F)cc(Cl)cc3Cl)nc3cnc(NC4CCS(=O)(=O)CC4)nc32)CC1 [Example 157, (1s,4s)-4-(8-((2,4-dichloro-6-fluorophenyl)amino)-2-((1,1-dioxidotetrahydro-2H-thiopyran-4-yl)amino)-9H-purin-9-yl)cyclohexane-1-carboxamide]
> 1000 nM | CC(C)(C)OC(=O)N1CCC[C@@H](Nc2ncc3nc(Nc4c(F)cc(F)cc4F)n([C@H]4CC[C@@H](C(N)=O)CC4)c3n2)C1 [Example 158, (R)-tert-butyl 3-(9-((1s,4S)-4-carbamoylcyclohexyl)-8-(2,4,6-trifluorophenylamino)-9H-purin-2-ylamino)piperidine-1-carboxylate]
> 1000 nM | CC(C)(C)OC(=O)N1CCC[C@@H](Nc2ncc3nc(Nc4c(F)cccc4F)n([C@H]4CC[C@@H](C(N)=O)CC4)c3n2)C1 [Example 159, (R)-tert-butyl 3-(9-((1s,4S)-4-carbamoylcyclohexyl)-8-(2,6-difluorophenylamino)-9H-purin-2-ylamino)piperidine-1-carboxylate]
> 1000 nM | CC(C)(C)OC(=O)N1CCC[C@@H](Nc2ncc3nc(Nc4c(Cl)cccc4Cl)n([C@H]4CC[C@@H](C(N)=O)CC4)c3n2)C1 [Example 160, (R)-tert-butyl 3-(9-((1s,4S)-4-carbamoylcyclohexyl)-8-(2,6-dichlorophenylamino)-9H-purin-2-ylamino)piperidine-1-carboxylate]
> 1000 nM | CC(C)(C)OC(=O)N1CCC[C@@H](Nc2ncc3nc(Nc4c(F)cc(F)cc4Cl)n([C@H]4CC[C@@H](C(N)=O)CC4)c3n2)C1 [Example 161, (R)-tert-butyl 3-(9-((1s,4S)-4-carbamoylcyclohexyl)-8-(2-chloro-4,6-fluorophenylamino)-9H-purin-2-ylamino)piperidine-1-carboxylate]
> 1000 nM | CC(C)(C)OC(=O)N1CCC[C@@H](Nc2ncc3nc(Nc4c(F)cc(Cl)cc4F)n([C@H]4CC[C@@H](C(N)=O)CC4)c3n2)C1 [Example 162, (R)-tert-butyl 3-(9-((1s,4S)-4-carbamoylcyclohexyl)-8-(4-chloro-2,6-difluorophenylamino)-9H-purin-2-ylamino)piperidine-1-carboxylate]
> 1000 nM | CC(C)(C)OC(=O)N1CCC[C@@H](Nc2ncc3nc(Nc4c(Cl)cc(Cl)cc4Cl)n([C@H]4CC[C@@H](C(N)=O)CC4)c3n2)C1 [Example 163, (R)-tert-butyl 3-(9-((1s,4S)-4-carbamoylcyclohexyl)-8-(2,4,6-trichlorophenylamino)-9H-purin-2-ylamino)piperidine-1-carboxylate]
> 1000 nM | C[C@@H](CO)Nc1ncc2nc(Nc3c(F)cc(F)cc3F)n([C@H]3CC[C@@H](C(N)=O)CC3)c2n1 [Example 164, (1R,4s)-4-(2-((S)-1-hydroxypropan-2-ylamino)-8-(2,4,6-trifluorophenylamino)-9H-purin-9-yl)cyclohexanecarboxamide]
250 to 500 nM | C[C@@H](CO)Nc1ncc2nc(Nc3c(Cl)cc(Cl)cc3Cl)n([C@H]3CC[C@@H](C(N)=O)CC3)c2n1 [Example 165, (1R,4s)-4-(2-((S)-1-hydroxypropan-2-ylamino)-8-(2,4,6-trichlorophenylamino)-9H-purin-9-yl)cyclohexanecarboxamide]
500 to 1000 nM | C[C@@H](CO)Nc1ncc2nc(Nc3c(Cl)cc(F)cc3Cl)n([C@H]3CC[C@@H](C(N)=O)CC3)c2n1 [Example 166, (1R,4s)-4-(8-(2,6-dichloro-4-fluorophenylamino)-2-((S)-1-hydroxypropan-2-ylamino)-9H-purin-9-yl)cyclohexanecarboxamide]
> 1000 nM | C[C@@H](CO)Nc1ncc2nc(Nc3c(F)cccc3F)n([C@H]3CC[C@@H](C(N)=O)CC3)c2n1 [Example 167, (1R,4s)-4-(8-(2,6-difluorophenylamino)-2-((S)-1 hydroxypropan-2-ylamino)-9H-purin-9-yl)cyclohexanecarboxamide]
> 1000 nM | C[C@@H](CO)Nc1ncc2nc(Nc3c(Cl)cccc3Cl)n([C@H]3CC[C@@H](C(N)=O)CC3)c2n1 [Example 168, (1R,4s)-4-(8-(2,6-dichlorophenylamino)-2-((S)-1 hydroxypropan-2-ylamino)-9H-purin-9-yl)cyclohexanecarboxamide]
500 to 1000 nM | C[C@@H](CO)Nc1ncc2nc(Nc3c(F)cc(Cl)cc3F)n([C@H]3CC[C@@H](C(N)=O)CC3)c2n1 [Example 169, (1R,4s)-4-(8-(4-chloro-2,6-difluorophenylamino)-2-((S)-1-hydroxypropan-2-ylamino)-9H-purin-9-yl)cyclohexanecarboxamide]
> 1000 nM | C[C@@H](CO)Nc1ncc2nc(Nc3ccc(Cl)cc3Cl)n([C@H]3CC[C@@H](C(N)=O)CC3)c2n1 [Example 170, (1R,4s)-4-(8-(2,4-dichlorophenylamino)-2-((S)-1-hydroxypropan-2-ylamino)-9H-purin-9-yl)cyclohexanecarboxamide]
> 1000 nM | C[C@@H](CO)Nc1ncc2nc(Nc3cc(Cl)ccc3F)n([C@H]3CC[C@@H](C(N)=O)CC3)c2n1 [Example 171, (1R,4s)-4-(8-(5-chloro-2-fluorophenylamino)-2-((S)-1-hydroxypropan-2-ylamino)-9H-purin-9-yl)cyclohexanecarboxamide]
> 1000 nM | C[C@@H](CO)Nc1ncc2nc(Nc3cccc(Cl)c3F)n([C@H]3CC[C@@H](C(N)=O)CC3)c2n1 [Example 172, (1R,4s)-4-(8-(3-chloro-2-fluorophenylamino)-2-((S)-1-hydroxypropan-2-ylamino)-9H-purin-9-yl)cyclohexanecarboxamide]
> 1000 nM | NC(=O)[C@H]1CC[C@@H](n2c(Nc3c(F)cccc3F)nc3cnc(NC4CC5(COC5)C4)nc32)CC1 [Example 173, (1s,4s)-4-(2-(2-oxaspiro[3.3]heptan-6-ylamino)-8-(2,6-difluorophenylamino)-9H-purin-9-yl)cyclohexanecarboxamide]
> 1000 nM | NC(=O)[C@H]1CC[C@@H](n2c(Nc3c(Cl)cccc3Cl)nc3cnc(NC4CC5(COC5)C4)nc32)CC1 [Example 174, (1s,4s)-4-(2-(2-oxaspiro[3.3]heptan-6-ylamino)-8-(2,6-dichlorophenylamino)-9H-purin-9-yl)cyclohexanecarboxamide]
500 to 1000 nM | NC(=O)[C@H]1CC[C@@H](n2c(Nc3c(F)cc(F)cc3Cl)nc3cnc(NC4CC5(COC5)C4)nc32)CC1 [Example 175, (1s,4s)-4-(2-(2-oxaspiro[3.3]heptan-6-ylamino)-8-(2-chloro-4,6-difluorophenylamino)-9H-purin-9-yl)cyclohexanecarboxamide]
> 1000 nM | NC(=O)[C@H]1CC[C@@H](n2c(Nc3c(F)cc(Cl)cc3F)nc3cnc(NC4CC5(COC5)C4)nc32)CC1 [Example 176, (1s,4s)-4-(2-(2-oxaspiro[3.3]heptan-6-ylamino)-8-(4-chloro-2,6-difluorophenylamino)-9H-purin-9-yl)cyclohexanecarboxamide]
250 to 500 nM | NC(=O)[C@H]1CC[C@@H](n2c(Nc3c(Cl)cc(Cl)cc3Cl)nc3cnc(NC4CC5(COC5)C4)nc32)CC1 [Example 177, (1s,4s)-4-(2-(2-oxaspiro[3.3]heptan-6-ylamino)-8-(2,4,6-trichlorophenylamino)-9H-purin-9-yl)cyclohexanecarboxamide]
> 1000 nM | NC(=O)[C@H]1CC[C@@H](n2c(Nc3c(F)cc(F)cc3F)nc3cnc(NC4COCC4O)nc32)CC1 (some centres unmarked) [Example 178, (1s,4s)-4-(2-(4-hydroxytetrahydrofuran-3-ylamino)-8-(2,4,6-trifluorophenylamino)-9H-purin-9-yl)cyclohexanecarboxamide]
